Series [1] concerns malondialdehyde-protein adducts. The series can be described thus: Hepatic lipid peroxidation (malondialdehyde-protein adducts, immunohistochemistry) in CCl4-treated rats. It is filed as in vivo, Sprague-Dawley rats. The conditions noted are these: 48 h. On the procedure: (§1) Forty-eight hours after the CCl4 or mineral oil injection (and 4 hours after the [^3H]thymidine injection), the rats were sacrificed. Thereafter, liver tissues were promptly removed, and a piece was fixed in 10% formaldehyde and embedded in paraffin for immunohistochemical staining.
Liver tissue was immunostained with antisera, specific for malondialdehyde-lysine adducts, raised against malondialdehyde-lysine adducts as described by Houglum et al., J Clin Invest 96:2269-76 (1995). Briefly, guinea pig LDL was isolated and modified with MDA, and the homologous modified LDL was used to immunize guinea pigs.
A phase-contrast microscope was utilized for hematoxylin/eosin staining and immunohistochemistry with alkaline phosphatase secondary antibodies (Vector Laboratories). Cytochromes utilized were alkaline phosphatase with fast green as counterstain (Sigma Chemical Co.). Negative control samples were processed in parallel under the same conditions, but with omission of the primary antibody.
In order to ascertain whether or not the prevention of activation observed with pentoxifylline resulted from interfering with the hepatocellular injury induced by CCl4, the degree of hepatocellular injury and lipid peroxidation were determined in those animals. […] As set forth above, protein adducts with malondialdehyde were detected using specific antibodies against malondialdehyde-lysine epitopes.

The test system of series [2] is α-smooth muscle actin (α-SMA) expression in hepatic stellate cells. Kind of series: Stellate cell activation: α-SMA expression by Western blot of freshly isolated stellate cells, CCl4-treated rats. It is filed as in vivo, Sprague-Dawley rats. Conditions: 200 mg/kg i.p., 48 h, metabolite 5 given as ester prodrug.
Description: (§2) At least four Sprague-Dawley (Charles River Breeding Labs) male rats (50 to 60 g) were assigned to each of four testing groups (designated as “CCl4”, “pentoxifylline”, “metabolite 5”, and “control”). Each rat received a single intraperitoneal injection of CCl4 in mineral oil (1:3; v/v) at a dose of 2 mL/kg body weight (CCl4, pentoxifylline, and metabolite 5 groups), or mineral oil only (control group). In addition, animals received intraperitoneal injections (100 μL) of saline (control and CCl4 groups), 200 mg/kg pentoxifylline (pentoxifylline group), or 200 mg/kg of the ester prodrug of pentoxifylline metabolite 5 (metabolite 5 group) at the following times with respect to mineral oil or CCl4 administration: −4 h, +8 h, +20 h, +32 h, and +44 h.
Hepatic stellate cells were prepared from rats by in situ perfusion of the liver and single-step density Nycodenz® gradient (Accurate Chemical & Scientific Corp.). […] The cells were mixed with 9.5 mL Hank's buffer containing 3 g/L BSA and 8 mL of 28.7% (w/v) Nycodenz® in sodium-free Hank's buffer. The gradient was generated by placing 6 mL of the Hank's/BSA solution on top of the liver cell mixture in a 50 mL centrifugation tube. […]
A further series deals with α-SMA-E box. The series can be described thus: Mobility shift analysis of stellate cell nuclear extracts with α-SMA-E box oligonucleotide. It is filed as in vivo, Sprague-Dawley rats. The conditions noted are these: CCl4-treated rats, gel shift. (A gel shift assay detects complexes by their altered migration in electrophoresis.)
For series [3] the following is noted: after pentoxifylline; cited from earlier work.
For a further series, the system named is NFkB. The series can be described thus: Mobility shift analysis of stellate cell nuclear extracts with NFkB oligonucleotide. It is filed as in vivo, Sprague-Dawley rats. Conditions: CCl4-treated rats, gel shift.
Series [4] concerns cAMP phosphodiesterase activity in hepatic stellate cells. The series can be described thus: CREB phosphorylation at Ser 133 in stellate cell nuclear extracts (Western blot) as measure of cAMP phosphodiesterase inhibition in vivo. Set-up: species or system Sprague-Dawley rats. Conditions: for expression of CREB-PSer133 in stellate cell nuclear extracts: CCl4-treated rats, Western blot. The protocol:
Stellate cells were identified by their typical autofluorescence at 328 nm excitation wavelength, staining of lipid droplets by oil red, and immunohistochemistry with a monoclonal antibody against desmin. [Bedossa et al., Hepatology 19(5):1262-71 (1994)]. Detection of α-SMA, malondialdehyde-protein adducts, and CREB-PSer 133 in stellate cells extracts was performed by Western blot [Buck et al., EMBO J. 13:851-60 (1994)], and using antibodies directed against α-SMA (Vector Laboratories), malondialdehyde-lysine epitopes as described below [Trautwein et al., J. Clin. Invest. 93:2554-61 (1990)], or CREB-PSer 133 (Upstate Biotechnology).
Next, pentoxifylline and metabolite 5 were evaluated to determine whether they inhibit cAMP phosphodiesterase activity in hepatic stellate cells in vivo leading to an increase in protein kinase A-mediate phosphorylation. Because this signal transduction pathway triggers site-specific phosphorylation of the nuclear transcription factor CREB (cAMP responsive element binding protein) on Serine 133 [Yamamoto et al., Nature 334:494-98 (1988)], the induction of CREB phosphorylation at Ser 133 was analyzed in nuclear extracts from freshly isolated stellate cells using an antibody against the activated, phosphorylated form of CREB [Ginty et al., Science 260:238-42 (1993)].
FIG. 4B is a Western blot indicating the results of phosphorylation of CREB at Serine 133 in stellate cell nuclear extracts with control (lane 1), CCl4 (lane 2), CCl4/pentoxifylline (lane 3), and CCl4/metabolite 5 (lane 4) animals. […] Molecular markers (kilodaltons) are shown on the right margin of FIG. 4B. In addition to recognizing CREB, anti-CREB-PSer133 detected two other proteins. These are most likely members of the CREB-ATF family, ATF-1 and CREM, that have phosphoacceptor sequences similar to that of CREB-PSer133 [Ginty et al., Science 260:238-42 (1993)]. […] Neither CREB PSer133 nor phosphorylated members of the CREB-ATF family were detected in stellate cell nuclear extracts from CCl4-treated animals (lane 2).
A general note: Immunoblotting shows a protein as a band on a membrane.

A further series has as its system 3T3 NIH fibroblasts. Kind of series: Fibroblast proliferation in culture. The class given is cell-based. The conditions noted are these: for effect on fibroblast growth induced by cytokines PDGF, EGF and FGF: data not shown. The protocol:
The biological activities of pentoxifylline and metabolite 5 were further studied by measuring their effects on the stimulation of fibroblast proliferation. For this study, 3T3 NIH fibroblasts were cultured in the presence or absence of pentoxifylline or metabolite 5.

For series [5], the system named is cyclic nucleotide phosphodiesterases. The conditions noted are these: cited from earlier work.
A further series deals with hepatic stellate cells. Kind of series: Stellate cell proliferation ([3H]thymidine incorporation into stellate cell DNA) in CCl4-treated rats. The class given is in vivo, Sprague-Dawley rats. The conditions noted are these: 200 mg/kg i.p. at -4, +8, +20, +32, +44 h, 48 h, metabolite 5 given as ester prodrug. On the procedure:
as §1
Hepatic stellate cells were prepared from rats by in situ perfusion of the liver and single-step density Nycodenz® gradient (Accurate Chemical & Scientific Corp.). [See Bedossa et al., Hepatology 19(5):1262-71 (1994); Brenner et al., Mol. Biol. Med. 7:105-15 (1990); Schäfer et al., Hepatology 7(4):680-87 (1987)]. The cells were mixed with 9.5 mL Hank's buffer containing 3 g/L BSA and 8 mL of 28.7% (w/v) Nycodenz® in sodium-free Hank's buffer. […]
Nuclei were prepared by a modification of the procedure described previously, e.g., by Buck et al., EMBO J. 13:851-60 (1994). […] DNA was isolated, extracted and counted for [^3H]thymidine incorporation.
Stellate cell proliferation was assessed by the incorporation of [^3H]thymidine. Stellate cell activation was evaluated by the expression of α-smooth muscle actin (α-SMA). […]
The specific activity of stellate cell DNA, an index of S-phase labeling, was determined from at least four rats in each experimental group after 4 hours of labeling with [^3H]thymidine at 1 PM. […]

The conditions of series [6]: rat, in vivo.
Description: At least four Sprague-Dawley (Charles River Breeding Labs) male rats (50 to 60 g) were assigned to each of four testing groups (designated as “CCl4”, “pentoxifylline”, “metabolite 5”, and “control”). Each rat received a single intraperitoneal injection of CCl4 in mineral oil (1:3; v/v) at a dose of 2 mL/kg body weight (CCl4, pentoxifylline, and metabolite 5 groups), or mineral oil only (control group). In addition, animals received intraperitoneal injections (100 μL) of saline (control and CCl4 groups), 200 mg/kg pentoxifylline (pentoxifylline group), or 200 mg/kg of the ester prodrug of pentoxifylline metabolite 5 (metabolite 5 group) at the following times with respect to mineral oil or CCl4 administration: −4 h, +8 h, +20 h, +32 h, and +44 h. The last injection (at +44h) included 30 μCi of 6-[^3H]thymidine (DuPont).
The conditions of series [7]: phosphorus-induced hepatocellular necrosis; cited from earlier work.
The next series relates to dermal fibroblasts. Conditions: cited from earlier work.

Description for NFkB: Gel retardation analysis of protein-DNA complexes were performed with an oligonucleotide of the putative DNA binding site.
For these analyses, equal amounts of nuclear protein were incubated with 1 ng of ^32P-labeled-NFkB (FIG. 3A) or ^32P-labeled-α-SMA-E box (FIG. 3B) oligonucleotides. The DNA-protein complexes were resolved by electrophoresis on a 6% nondenaturing polyacrylamide gel, the position of the bound DNA being indicated by arrows in FIGS. 3A-B. As described further below, some samples were incubated with specific antibodies or unlabeled oligonucleotide.
More specifically, FIG. 3A depicts DNA-protein complexes resolved by gel electrophoresis for representative samples of control (lane 2), CCl4 (lane 3), CCl4/pentoxifylline (lane 4); CCl4/metabolite 5 (lane 5); and CCl4+NFkB oligonucleotide (lane 6). On lane 1, the ^32P-labeled-NFkB probe was processed without nuclear extracts. […] The complex of ^32P-labeled NFkB oligonucleotides and nuclear extracts from activated stellate cells was competed by a NFkB cognate oligonucleotide (lane 6).
Description for α-SMA-E box: as §2
Briefly, cells were homogenized in 1 mL of 5% citric acid, 0.5% NP-40, 10 mM sodium fluoride and 10 mM sodium pyrophosphate with a glass Dounce homogenizer with a loose fitting pestle. The homogenized cells were placed above a cushion consisting of 30% sucrose and 1% citric acid. The nuclei were precipitated by a 4,000 g centrifugation at 4° C. for 30 min. and frozen at −70° C.
Gel retardation analysis of protein-DNA complexes were performed with an oligonucleotide of the putative DNA binding site. […]

As for `Cn1cnc2c1c(=O)n(CCCC(=O)O)c(=O)n2C` [metabolite 5, 1-(3-carboxypropyl)-3,7-dimethylxanthine], the “hepatic lipid peroxidation (malondialdehyde-protein adducts) versus CCl4 alone” value in series [1] is on record as “did not affect”. Moreover, the “effect on stellate cell activation (α-SMA expression, Western blot)” value in [2] is “prevented the activation of stellate cells induced by CCl4”. Moreover, the “effect on complex between α-SMA-E box and stellate cell nuclear extracts” value with α-SMA-E box is “prevented the formation of a complex”. The “plasma concentration relative to pentoxifylline” value in series [3] is given as “five times greater”. Besides, the “effect on NFkB nuclear binding activity of stellate cells” value in the series with NFkB was “prevented NFkB nuclear activity induced by CCl4”. Also, the “expression of CREB-PSer133 in stellate cell nuclear extracts” value in series [4] is reported as “not detected”. For the same molecule, the phosphodiesterase inhibitory activity entry in series [4] (rat, in vivo) was “lacks phosphodiesterase inhibitory activity”. In addition, in the series on 3T3 NIH fibroblasts, the “effect on fibroblast growth in logarithmic phase” value was “block fibroblast growth in logarithmic phase”; the “effect on fibroblast growth induced by cytokines PDGF, EGF and FGF” value is given as “blocked fibroblast growth”.

On to `CC(=O)CCCCn1c(=O)c2c(ncn2C)n(C)c1=O` [pentoxifylline, 1-(5-oxohexyl)-3,7-dimethylxanthine], for which the phosphodiesterase inhibition result in [5] is reported as “non-specific inhibitor of cyclic nucleotide phosphodiesterases”. For the same molecule, the “effect on stellate cell proliferation (stellate cell DNA [3H]thymidine specific activity)” value in the series on hepatic stellate cells is recorded as “abolished the proliferation of stellate cells”. For the same molecule, in series [6], the “toxicity of the dose to the animals” value is recorded as “not toxic”. The “hepatic lipid peroxidation (malondialdehyde-protein adducts) versus CCl4 alone” value in series [1] is reported as “comparable”. Further, the “effect on stellate cell activation (α-SMA expression, Western blot)” value in series [2] is “prevented the activation of stellate cells induced by CCl4”. In addition, in series [7], the hepatic fibrosis entry is on record as “prevented hepatic fibrosis”. In addition, the “effect on complex between α-SMA-E box and stellate cell nuclear extracts” value with α-SMA-E box was “prevented the formation of a complex”. The collagen gene expression result in the series with dermal fibroblasts was “inhibits collagen gene expression”. Also, the “effect on NFkB nuclear binding activity of stellate cells” value in the series with NFkB was “prevented NFkB nuclear activity induced by CCl4”. Moreover, in series [4], the “expression of CREB-PSer133 in stellate cell nuclear extracts” value was “markedly increased”. Further, in the series with 3T3 NIH fibroblasts, the “effect on fibroblast growth in logarithmic phase” value is “block fibroblast growth in logarithmic phase”; the “effect on fibroblast growth induced by cytokines PDGF, EGF and FGF” value is on record as “blocked fibroblast growth”.

The values above are taken from patent publication US6420428B1, “Treatment and prevention of hepatic disorders” (The Regents of the University of California, priority 1996, dated 2002).
